The values that follow come from US11072619B2, “Pyrazole[1,5-a] pyrimidine derivatives as kinase JAK inhibitors” (CELON PHARMA S.A., priority 2017, dated 2021).

Broadly, the IC50 is the concentration that gives 50% inhibition. The low end stands for inhibition by little substance, the high end for a need for much substance.

The structures appear in SMILES notation.

This assay concerns STAT6 protein phosphorylation in TF-1 cells. The assay is described as follows: STAT6 phosphorylation inhibition in vitro in TF-1 cells with IL-4. In kind it is cell-based. The settings on record: Homo sapiens, IL-4 20 ng/mL, 1 hour, Western blot densitometry. On the procedure:
Assay of STAT6 Phosphorylation Inhibition In Vitro
The activity of the compounds of the invention was tested using in vitro assay described below.
Tested compounds were dissolved in 100% DMSO, and obtained stock solutions were serially in OptiMEM medium (Reduced Serum Medium-Thermo Fisher Scientific). TF-1 cells (DSMZ no.: ACC 334) in culture medium (80% RPMI 1640+20% FBS) in the presence of IL-4 at 20 ng/mL were sieved on 12-well plates at 900 μl/well, 700 thousands of cells/well. To a well of the 12-well plate 100 μL of obtained 10× solution of the compounds were added. Cells on 12-well plates were incubated with tested compounds for 1 hour at 37° C., 5% CO2. Subsequently the cells were washed with PBS, lysed in RIPA buffer added with EDTA, proteases and phosphatases inhibitors, and incubated for 5 min on ice. Protein concentration was determined using Pierce BCA Protein Assay Kit (Thermo Fisher Scientific). Protein lysates were separated by electrophoresis (SDS-PAGE) on 8% polyacrylamide gels, then wet-transferred on nitrocellulose membrane and tested proteins were detected in accordance with the instructions of antibody manufacturer.
On the basis of the measurement of chemoluminescence intensity densitometric analysis was performed, results obtained for the cells treated with tested compounds at various concentrations were compared with those obtained for control cells, and IC50 values were determined.
These values were determined with Graph Pad software v. 5.03, by fitting points of the curve using non-linear regression method. Each compound was tested in at least 3 repetitions.
On the technique in general: Immunoblotting shows a protein as a band on a membrane.
As for `COc1ccc(-c2cc3ncc(C(N)=O)c(N[C@@H]4CCN(c5ccc(C#N)nn5)CC4(C)C)n3n2)cn1` [Example 4, (R)-7-((1-(6-Cyanopyridazin-3-yl)-3,3-dimethylpiperidin-4-yl)amino)-2-(6-methoxy-pyridin-3-yl)pyrazolo[1,5-a]pyrimidine-6-carboxamide], half-maximal inhibition (IC50) was put at 442 nM.

On to `CC1(C)CN(c2ccc(C#N)nn2)CC[C@H]1Nc1c(C(N)=O)cnc2cc(-c3ccc(N4CCOCC4)nc3)nn12` [Example 7, (R)-7-((1-(6-Cyanopyridazin-3-yl)-3,3-dimethylpiperidin-4-yl)amino)-2-(6-morpholinopyridin-3-yl)pyrazolo[1,5-a]pyrimidine-6-carboxamide], for which the concentration for half-maximal inhibition (IC50) stood at 116 nM.

As for `COc1cccc(-c2cc3ncc(C(N)=O)c(N[C@@H]4CCN(c5ccc(C#N)nn5)CC4(C)C)n3n2)n1` [Example 11, (R)-7-((1-(6-Cyanopyridazin-3-yl)-3,3-dimethylpiperidin-4-yl)amino)-2-(6-methoxy-pyridin-2-yl)pyrazolo[1,5-a]pyrimidine-6-carboxamide], the half-maximal inhibitory concentration (IC50) came out at 114 nM.

`Cc1cc(-c2cc3ncc(C(N)=O)c(N[C@@H]4CCN(c5ccc(C#N)nn5)CC4(C)C)n3n2)ccn1` [Example 12, (R)-7-((1-(6-Cyanopyridazin-3-yl)-3,3-dimethylpiperidin-4-yl)amino)-2-(2-methyl-pyridin-4-yl)pyrazolo[1,5-a]pyrimidine-6-carboxamide]: the half-maximal inhibitory concentration (IC50) stood at 150 nM.
